The results in this text go back to ChEMBL document CHEMBL1201862, “PubChem BioAssay data set” (2004).

Calls of active or inactive are those of the source.

For experiment [1], the system named is HeLa. Kind of experiment: ATP-based viability loss in HeLa cells – cell-based, CellTiter-Glo luminescence, cherry-pick samples, cytotoxicity control for MITF activator project, dose response (AID 540259). The note with it: Homo sapiens. The experiment is classed as functional. For orientation: Cellular ATP, detected with luciferase, serves as a proxy for viable cell number.

The target of experiment [2] is T1, Short transient receptor potential channel 4 (Mus musculus, UniProt Q9QUQ5).
T1 sequence (Q9QUQ5 whole entry): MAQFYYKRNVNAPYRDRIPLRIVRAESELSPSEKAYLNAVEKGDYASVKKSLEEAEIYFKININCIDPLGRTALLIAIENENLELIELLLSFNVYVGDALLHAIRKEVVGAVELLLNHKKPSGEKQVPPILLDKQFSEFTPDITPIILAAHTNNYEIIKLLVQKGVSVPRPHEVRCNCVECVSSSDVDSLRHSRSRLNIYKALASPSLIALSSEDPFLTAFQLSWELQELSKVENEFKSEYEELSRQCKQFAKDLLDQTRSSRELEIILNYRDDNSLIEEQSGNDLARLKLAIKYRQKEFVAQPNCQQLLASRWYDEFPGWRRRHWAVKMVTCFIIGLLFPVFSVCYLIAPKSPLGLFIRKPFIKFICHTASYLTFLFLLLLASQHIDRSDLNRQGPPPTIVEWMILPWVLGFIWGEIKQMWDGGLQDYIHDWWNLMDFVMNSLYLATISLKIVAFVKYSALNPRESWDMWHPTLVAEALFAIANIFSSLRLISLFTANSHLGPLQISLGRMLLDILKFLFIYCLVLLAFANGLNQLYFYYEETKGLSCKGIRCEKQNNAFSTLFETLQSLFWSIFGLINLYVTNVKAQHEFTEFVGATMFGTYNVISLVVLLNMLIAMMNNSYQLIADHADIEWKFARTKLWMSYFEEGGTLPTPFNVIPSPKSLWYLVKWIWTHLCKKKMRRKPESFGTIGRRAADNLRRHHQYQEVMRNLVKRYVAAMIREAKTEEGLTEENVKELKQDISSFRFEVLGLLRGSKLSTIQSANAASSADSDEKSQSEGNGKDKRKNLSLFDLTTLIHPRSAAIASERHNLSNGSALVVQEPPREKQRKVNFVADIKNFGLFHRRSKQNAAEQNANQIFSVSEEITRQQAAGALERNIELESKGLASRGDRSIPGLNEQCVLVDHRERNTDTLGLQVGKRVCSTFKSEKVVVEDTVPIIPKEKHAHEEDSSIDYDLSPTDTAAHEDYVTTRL
Briefly: calcium entry via TRPC4 opening agents – cell-based, HEK293 TRPC4/mu-opioid, Fluo-4 calcium, dose response (AID 434937). The experiment is classed as functional.

For experiment [3], the target named is T2, Corticotropin-releasing factor receptor 2/Corticotropin-releasing factor-binding protein (Homo sapiens, UniProt P24387+Q13324).
T2 sequence (Q13324 whole entry): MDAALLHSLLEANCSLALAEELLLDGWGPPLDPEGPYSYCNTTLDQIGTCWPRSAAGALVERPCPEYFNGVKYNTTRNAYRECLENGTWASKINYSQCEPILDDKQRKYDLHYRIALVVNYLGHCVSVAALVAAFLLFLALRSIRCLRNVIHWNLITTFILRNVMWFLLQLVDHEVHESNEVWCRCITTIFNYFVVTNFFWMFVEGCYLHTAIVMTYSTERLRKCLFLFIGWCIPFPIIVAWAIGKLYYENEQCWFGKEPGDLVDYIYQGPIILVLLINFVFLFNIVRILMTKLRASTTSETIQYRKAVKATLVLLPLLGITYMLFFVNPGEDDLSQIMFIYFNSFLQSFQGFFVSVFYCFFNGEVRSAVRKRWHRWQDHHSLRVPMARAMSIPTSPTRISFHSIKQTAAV
T2 sequence (P24387 whole entry): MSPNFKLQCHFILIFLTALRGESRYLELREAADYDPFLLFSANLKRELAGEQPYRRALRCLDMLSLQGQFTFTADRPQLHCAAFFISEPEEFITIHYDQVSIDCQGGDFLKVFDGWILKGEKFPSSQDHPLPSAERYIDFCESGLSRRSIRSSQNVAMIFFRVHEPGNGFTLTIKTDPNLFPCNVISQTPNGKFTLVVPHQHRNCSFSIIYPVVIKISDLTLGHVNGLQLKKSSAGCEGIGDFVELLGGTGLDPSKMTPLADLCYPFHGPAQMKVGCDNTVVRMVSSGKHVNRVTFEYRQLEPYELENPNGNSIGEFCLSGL
Kind of experiment: activators of CRF receptor 2 with binding protein – uHTS hits, confirmation (AID 602473). The format is functional. The note with it: read-out: EC50_Mean.

Experiment [4] is described as follows: Luminescence Cell-Based Dose Response HTS to Identify Activators of Luciferase Translation or Activity in H4 […] Cells. [Related pubchem assays: 1829 (Project Summary), 1814 (Primary HTS)]. The experiment is classed as functional.
The target in experiment [5] is Nonstructural protein 1 (Influenza A virus, UniProt Q194T2). The format is functional, Influenza A virus (A/California/07/2009(H1N1)).
Experiment [6] can be described thus: Luminescence Cell-Based Dose Confirmation HTS to Identify Activators of 5'UTR Stem-Loop Driven Alpha-Synuclein mRNA Translation in H4 Neuroglioblastoma Cells. [Related pubchem assays: 1829 (Project Summary), 1814 (Primary HTS)]. The experiment is classed as functional.
Experiment [7] relates to H4. Kind of experiment: Luminescence Cell-Based Dose Response HTS to Identify Activators of 5'UTR Stem-Loop Driven Prion Protein mRNA Translation in H4 Neuroglioblastoma Cells. [Related pubchem assays: 1829 (Project Summary), 1814 (Primary HTS)]. The experiment is classed as functional. The note with it: Homo sapiens.
The nature of experiment [8]: luciferase reporter signal suppression in cells – H4 neuroglioma cells, luminescence, dose response (AID 1990). The experiment is classed as functional, cell-based.
Experiment [9] addresses T3, Coagulation factor XII (Homo sapiens, UniProt P00748).
T3 sequence (P00748 whole entry): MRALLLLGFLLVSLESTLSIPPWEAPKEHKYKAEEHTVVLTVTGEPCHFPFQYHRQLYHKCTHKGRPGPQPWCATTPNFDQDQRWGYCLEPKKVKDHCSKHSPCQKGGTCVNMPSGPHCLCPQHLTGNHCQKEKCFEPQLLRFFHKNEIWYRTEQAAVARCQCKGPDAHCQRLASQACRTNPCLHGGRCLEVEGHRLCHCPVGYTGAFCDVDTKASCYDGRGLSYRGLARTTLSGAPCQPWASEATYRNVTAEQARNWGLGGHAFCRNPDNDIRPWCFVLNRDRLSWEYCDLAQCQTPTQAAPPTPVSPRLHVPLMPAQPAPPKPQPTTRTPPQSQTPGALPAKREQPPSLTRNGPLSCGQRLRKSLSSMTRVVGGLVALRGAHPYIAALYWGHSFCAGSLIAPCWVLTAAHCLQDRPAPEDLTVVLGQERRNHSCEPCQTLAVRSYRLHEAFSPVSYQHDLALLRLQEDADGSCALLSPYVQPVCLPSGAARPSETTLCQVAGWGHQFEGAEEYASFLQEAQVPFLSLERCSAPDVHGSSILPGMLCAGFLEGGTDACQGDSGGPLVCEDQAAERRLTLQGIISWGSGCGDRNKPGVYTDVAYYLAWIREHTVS
The format is functional.

Experiment [10] can be described thus: alpha-synuclein stem-loop luciferase translation blockers – H4 neuroglioma cells, luminescence, confirmation (AID 1988). The experiment is classed as functional, cell-based.
A short description of experiment [11]: Luminescence Cell-Based Dose Response HTS to Identify Inhibitors of 5'UTR Stem-Loop Driven Prion Protein mRNA Translation in H4 Neuroglioblastoma Cells. [Related pubchem assays: 1827 (Project Summary), 1813 (Primary HTS)]. The experiment is classed as functional.
For experiment [12], the target named is Glucose-6-phosphate 1-dehydrogenase (Homo sapiens, UniProt P11413). Kind of experiment: inhibition of Homo sapiens G6PD, dose series – biochemical, fluorescence, selectivity assay for P. falciparum G6PD inhibitor project, dose response (AID 504792). The format is functional.
Experiment [13] concerns the target T4, Sentrin-specific protease 1 (Homo sapiens, UniProt Q9P0U3).
T4 sequence (Q9P0U3 whole entry): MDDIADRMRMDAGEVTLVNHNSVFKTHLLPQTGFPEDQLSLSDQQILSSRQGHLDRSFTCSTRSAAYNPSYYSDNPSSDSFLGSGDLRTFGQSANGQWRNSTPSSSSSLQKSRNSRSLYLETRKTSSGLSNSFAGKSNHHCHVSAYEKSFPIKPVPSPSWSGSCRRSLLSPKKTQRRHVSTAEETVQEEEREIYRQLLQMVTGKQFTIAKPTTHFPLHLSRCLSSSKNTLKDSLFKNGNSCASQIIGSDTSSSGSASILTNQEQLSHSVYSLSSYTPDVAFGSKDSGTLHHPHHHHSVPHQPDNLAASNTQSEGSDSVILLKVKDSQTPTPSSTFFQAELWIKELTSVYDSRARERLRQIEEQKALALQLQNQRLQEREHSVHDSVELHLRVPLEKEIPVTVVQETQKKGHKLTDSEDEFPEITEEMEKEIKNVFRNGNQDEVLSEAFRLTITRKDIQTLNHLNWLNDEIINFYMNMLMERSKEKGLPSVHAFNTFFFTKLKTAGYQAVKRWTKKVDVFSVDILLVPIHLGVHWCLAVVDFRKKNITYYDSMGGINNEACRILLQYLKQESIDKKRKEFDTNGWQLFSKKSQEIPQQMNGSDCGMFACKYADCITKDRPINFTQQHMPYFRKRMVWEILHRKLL
Kind of experiment: Dose response confirmation of small molecule inhibitors of the catalytic domain of the SUMO protease, SENP1 in a FRET assay. The format is functional. As to conditions: read-out: IC50_Mean.

Experiment [14] addresses Genome polyprotein (dengue virus type 2, UniProt P29990). Briefly: flavivirus cap methylation enzyme inhibition – biochemical, confirmation dose response, primary screen (AID 588689). The experiment is classed as functional.
In experiment [15] the target is T4, Sentrin-specific protease 1. Briefly: SENP1 catalytic domain blockers, concentration series – biochemical, kinetic FRET, dose response (AID 651697). The experiment is classed as functional. As to conditions: read-out: IC50_Mean.
In experiment [16] the target is T5, Endoribonuclease toxin MazF (Escherichia coli K-12, UniProt P0AE70).
T5 sequence (P0AE70 whole entry): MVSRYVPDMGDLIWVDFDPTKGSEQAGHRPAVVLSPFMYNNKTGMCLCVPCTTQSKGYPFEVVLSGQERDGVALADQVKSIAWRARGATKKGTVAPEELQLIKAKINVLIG
Kind of experiment: activation of MazEF endoribonuclease cleavage – biochemical, fluorescence, single-stranded RNA substrate, uHTS hits, dose response (AID 588481). The experiment is classed as functional.

For experiment [17], the target named is T5, Endoribonuclease toxin MazF. Kind of experiment: substrate-only fluorescence increase artefacts – biochemical, single-stranded RNase substrate, counter-screen for MazEF activator project, dose response (AID 588502). The experiment is classed as functional.
Experiment [18] concerns the target T6, Carboxy-terminal domain RNA polymerase II polypeptide A small phosphatase 1 (Homo sapiens, UniProt Q9GZU7).
T6 sequence (Q9GZU7 whole entry): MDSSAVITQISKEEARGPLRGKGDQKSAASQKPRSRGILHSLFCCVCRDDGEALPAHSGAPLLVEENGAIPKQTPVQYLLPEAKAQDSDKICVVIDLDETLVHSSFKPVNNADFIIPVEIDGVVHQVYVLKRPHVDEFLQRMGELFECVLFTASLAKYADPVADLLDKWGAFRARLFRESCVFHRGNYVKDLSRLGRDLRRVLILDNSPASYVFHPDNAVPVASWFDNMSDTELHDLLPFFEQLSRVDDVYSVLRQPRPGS
Briefly: CTDSP1 inhibitors, concentration-response, biochemical, absorbance readout, ultra-high-throughput screen actives (AID 540297). The format is functional.

Sequence of Glucose-6-phosphate 1-dehydrogenase (P11413 whole entry): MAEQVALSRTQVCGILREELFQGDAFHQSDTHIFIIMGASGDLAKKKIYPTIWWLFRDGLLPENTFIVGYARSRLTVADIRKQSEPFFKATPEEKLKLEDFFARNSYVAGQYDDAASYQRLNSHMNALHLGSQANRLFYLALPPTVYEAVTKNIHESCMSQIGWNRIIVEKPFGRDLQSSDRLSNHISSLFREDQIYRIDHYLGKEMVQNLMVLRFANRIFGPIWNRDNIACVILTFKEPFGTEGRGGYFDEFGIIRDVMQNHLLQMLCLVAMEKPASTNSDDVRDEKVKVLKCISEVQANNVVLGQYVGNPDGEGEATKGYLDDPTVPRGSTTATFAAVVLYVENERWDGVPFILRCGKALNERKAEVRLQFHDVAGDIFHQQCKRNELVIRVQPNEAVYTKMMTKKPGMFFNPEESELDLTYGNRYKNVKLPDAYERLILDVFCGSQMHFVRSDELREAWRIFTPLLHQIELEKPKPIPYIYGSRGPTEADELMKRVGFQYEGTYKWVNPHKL
Sequence of Nonstructural protein 1 (Q194T2 whole entry): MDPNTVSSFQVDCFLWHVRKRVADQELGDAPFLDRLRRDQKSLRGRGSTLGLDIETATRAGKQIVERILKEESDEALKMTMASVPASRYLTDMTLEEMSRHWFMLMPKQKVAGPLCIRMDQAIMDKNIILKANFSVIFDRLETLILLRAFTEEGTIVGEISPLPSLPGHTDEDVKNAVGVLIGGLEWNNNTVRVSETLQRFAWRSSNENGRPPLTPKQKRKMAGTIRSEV
Sequence of Genome polyprotein (P29990 2492-3391 limits assumed): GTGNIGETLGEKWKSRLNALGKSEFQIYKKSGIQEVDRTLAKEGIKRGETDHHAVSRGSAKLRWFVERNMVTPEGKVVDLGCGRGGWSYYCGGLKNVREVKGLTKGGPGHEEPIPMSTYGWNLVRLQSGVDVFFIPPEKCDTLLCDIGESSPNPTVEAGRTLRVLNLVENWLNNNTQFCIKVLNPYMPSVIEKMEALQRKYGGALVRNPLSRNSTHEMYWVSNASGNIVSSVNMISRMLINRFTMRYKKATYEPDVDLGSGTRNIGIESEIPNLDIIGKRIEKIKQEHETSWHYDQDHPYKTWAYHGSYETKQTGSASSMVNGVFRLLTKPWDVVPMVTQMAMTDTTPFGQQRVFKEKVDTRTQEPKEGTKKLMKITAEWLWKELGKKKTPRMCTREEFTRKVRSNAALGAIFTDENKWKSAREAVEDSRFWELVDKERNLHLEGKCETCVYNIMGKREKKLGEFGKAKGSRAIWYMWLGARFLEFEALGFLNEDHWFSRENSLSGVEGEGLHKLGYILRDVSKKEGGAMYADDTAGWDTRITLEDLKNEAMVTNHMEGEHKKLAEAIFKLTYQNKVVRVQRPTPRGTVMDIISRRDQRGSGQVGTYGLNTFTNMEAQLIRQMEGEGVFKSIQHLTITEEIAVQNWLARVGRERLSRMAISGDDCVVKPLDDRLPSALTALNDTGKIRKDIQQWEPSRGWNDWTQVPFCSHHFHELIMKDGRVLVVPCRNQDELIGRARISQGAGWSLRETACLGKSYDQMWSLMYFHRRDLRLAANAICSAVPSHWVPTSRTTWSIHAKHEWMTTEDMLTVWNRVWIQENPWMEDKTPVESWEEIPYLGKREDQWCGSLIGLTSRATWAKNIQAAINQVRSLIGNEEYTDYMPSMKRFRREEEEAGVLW

In general, AC50 refers to the concentration giving half of the maximal activity seen. With `CCCN(CCC)c1ncnc2c1cnn2-c1ccc(OC)cc1`, in experiment [1], the AC50 is 46.3 µM (active).

`Cc1nc2ccccn2c1P(=S)(N1CCCCC1)N1CCCCC1`: the EC50 in experiment [2] is 5.96 µM (active); in experiment [3], 23.7 µM (active).

Consider `C[n+]1c(/C=C/c2ccc(O)cc2)ccc2ccccc21`, for which the EC50 in [4] was 5.65 µM (active); in [6] it was 12.5 µM (active); in experiment [7], 7.6 µM (active). The IC50 in experiment [5] is > 100 µM (active).

As to `CC1(C)OC(=C/C=N/c2ccc(Cl)cc2)OC1(C)C`, the EC50 in [8], in [10] and in experiment [11] was > 120 µM (not active) in each case. Also, the IC50 in experiment [9] was > 50 µM (inactive).

Consider `Cc1cc(Br)c2[nH]c3c(c2c1)CCCC3=O`, for which the IC50 in [9] was > 50 µM (inactive).

For the compound `COc1ccc(OC)c(/C=N/N(C)c2ccccc2)c1`, in experiment [1], the AC50 is 44.7 µM (active).

As for `Cc1cccc(C(=O)Oc2ccc(/C=N/O)cc2)c1`, in [1], the AC50 was 41 µM (active).

Turning to `Cc1ccsc1/C=N/NC(=O)Nc1ccccc1`, the AC50 in [1] is 60.6 µM (active).

Consider `O=C(COC(=O)c1ccccc1Br)Nc1ccc(F)cc1`, for which the IC50 in [9] was > 50 µM (inactive).

For `COc1ccc(CN(C(=O)c2snc(C(N)=O)c2N)C(C(=O)NC(C)(C)C)c2ccco2)cc1` (stereo not drawn), in experiment [9], the IC50 is > 50 µM (inactive).

Turning to `Cn1c(=O)c2[nH]c(-c3ccccc3)c(O)c2n(C)c1=O`, the IC50 in experiment [12] was > 80 µM (inactive); in [13], 5.27 µM (active); in experiment [14] it was 18.5 µM (active); in [15], 5.99 µM (active). The results for the EC50 in experiment [16], in experiment [17] and in experiment [3] were 33.8 µM (inactive), 23.3 µM (inactive) and > 53 µM (inactive), respectively.

Take `Cc1cc(N=NC(=O)c2ccccc2O)c2ccccc2c1O`: the results for the IC50 in experiment [12] and in [18] were > 80 µM (inactive) and 5.15 µM (active), respectively.

On to `COc1cc(/C=N/Nc2nncn2N)ccc1OCc1c(C)no[n+]1[O-]`, for which, in experiment [12], the IC50 was 56.3 µM (inactive).

In the case of `CC(C1CC2CCC1C2)N1CC(=O)C(c2nc3ccccc3[nH]2)=C1N` (stereo not drawn), the IC50 in experiment [9] was > 50 µM (inactive).
